Assay results as given in US11559575B2, “Multi-epitopic peptide compounds and vaccines against leishmaniasis” (INSTITUT DE RECHERCHE POUR LE DEVELOPPEMENT, priority 2018, dated 2023).
“Also recorded” adds a separate entry of the source.

What was measured:
[1] = test system: HLA alleles of class I; assay: Affinity of epitopes for HLA alleles of class I; type: binding, human; conditions: for Affinity for the HLA alleles of class I: H2B-1 epitopes, Table 1
From the text: The multiepitopic peptide compounds (24 to 40-mer), having a high affinity with a maximized number of HLA molecules of class I and of class II, such as the affinities for the alleles HLA of class I and HLA of class II of the epitopes in the peptides of the sequences SEQ ID NO: 22, 23, 65, 66, 69, 73, 77, 96, 97, 137, 138, and 157, 185, have a high immunoprevalent potential corresponding to an optimal vaccine coverage, in particular for the populations concerned. The degree of coverage of the peptide compounds of the invention show a very high added value compared with the peptides of the prior art.

[2] = test system: HLA supertypes of class I; assay: Affinity of epitopes for HLA supertypes of class I; type: binding, human; conditions: for Affinity for the HLA supertypes of class I: H2B-1 epitopes, Table 1
From the text: HLA molecules are highly polymorphous. This is because there exist more than 2500 HLA proteins of class I (HLA-I) and more than 1000 HLA proteins of class II (HLA-II). However, some of these HLA molecules, close in sequence and in spatial conformation, may have epitopes common to the T cells. The grouping of several thousands of HLA molecules is at the present time described in a little more than 20 or so categories, referred to as “HLA supertypes” having epitopes that are very well preserved for each supertype.

[3] = test system: HLA alleles of class II; assay: Affinity of epitopes for HLA alleles of class II; type: binding, human
[4] = test system: CD4+ T cells of a naive individual (MPL10); assay: IFN-γ ELISPOT with CD4+ T cells and autologous dendritic cells of a naive individual (long protocol, three stimulations); type: cell-based, human
Method: The immunogenicity was evaluated, with combinations of peptides (combination corresponding to the “Pool H”) at 1 μM for each peptide, from samplings of blood of naive individuals and according to a long protocol with at least three successive stimulations. An IFN-γ ELISPOT test for measuring the frequency of the pre-existing naive T cells and the amplitude of the specific naive T repertoire for each peptide, was performed with the CD4+ T cells and the autologous dendritic cells of a naive individual in the presence or absence of the mixture of peptides, or in the presence of each peptide individually. […] The “Pool H” combination was used either with peptides not modified at the amino-terminal end and with amidation of the carboxy-terminal end, or with peptides chemically modified by a palmitoyl tail at the amino-terminal end and with amidation of the carboxy-terminal end.
The evaluation of the immunogenicity properties of peptide compounds according to the invention in naive individuals, persons who have never been in contact with the Leishmania parasite, is an important factor in predicting the efficacy of a peptide vaccine (Kwok WW et al, 2012, Frequency of epitope-specific naive CD4(+) T cells correlates with immunodominance in the human memory repertoire; Castelli F A et al, 2007, Differential capacity of T cell priming in naive donors of promiscuous CD4+ T cell epitopes of HCV NS3 and Core proteins). Immunogenicity is evaluated in vitro by measuring the frequency of the pre-existing naive T cells and the amplitude of the naive T repertoire specific for each compound. The evaluation is carried out using blood samples from naive individuals and in accordance with a long protocol (Castelli F A, et al. 2007 as aforementioned) putting purified T lymphocytes in contact with autologous dendritic cells previously incubated with the peptides of the invention. The combination of peptides used is composed of: SEQ ID NO: 23, SEQ ID NO: 66, SEQ ID NO: 73, SEQ ID NO: 77, SEQ ID NO: 97, SEQ ID NO: 138, SEQ ID NO: 157, SEQ ID NO: 185, SEQ ID NO: B11, SEQ ID NO: B12 and SEQ ID NO: B13. The compounds were synthesized chemically without amino-terminal modification and with carboxy-terminal (peptide-NH2) amidation (NH2). After three successive stimulations at intervals of seven days of the CD4+ T cells of a naive individual (MPL10; Établissement français du sang de Toulouse), an IFN-γ ELISPOT was carried out with the cells in the presence or absence of the mixture of peptides, or in the presence of each compound individually. […] Each positive line responds to at least one of the peptides of the present invention. The MPL10-3 line responds to the peptides SEQ ID NO: 73 and SEQ ID NO: 157. The MPL10-4 line responds to the peptides SEQ ID NO: 23, SEQ ID NO: 73, SEQ ID NO: 77, SEQ ID NO: 97, SEQ ID NO: 138 and SEQ ID NO: 157. The MPL10-7 line responds to the peptides SEQ ID NO: 77, SEQ ID NO: 97 and SEQ ID NO: 157. The MPL10-8 line responds to the peptides SEQ ID NO: 66, SEQ ID NO: 73, SEQ ID NO: 97, SEQ ID NO: 138 and SEQ ID NO: 157. The MPL10-10 line responds to the peptides SEQ ID NO: 66, SEQ ID NO: 73, SEQ ID NO: 77, SEQ ID NO: 97, SEQ ID NO: 138, SEQ ID NO: 157 and SEQ ID NO: 185. And the MPL10-12 line responds to the peptides SEQ ID NO: 66, SEQ ID NO: 157 and SEQ ID NO: 185.
The evaluation of the immunogenicity properties of peptide compounds of the invention in the same naive individual (MPL10) but with chemically synthesized compounds with the addition of a palmitoylated tail at the amino-terminal end and with an NH2 group at the carboxy-terminal end (PAL-peptide-NH2) was also performed. The same combination of peptides as before was used. After three stimulations with the mixture of PAL-peptide-NH2 peptides, an IFN-g ELISPOT was carried out with the cells in the presence or absence of the mixture of peptides, or in the presence of each peptide individually. […]

[5] = LmLRAB (IA, IB, IC) epitopes, Table 2
[6] = MPL10-PAL-3 line, PAL-peptide-NH2

Question: Which “Affinity for the HLA alleles of class I” value [1] does the source give for “AINAQMSMM (Leishmania major) [SEQ ID NO: 1]” here?
Answer: The value was “HLA-B*15:01”.

Question: What about the “Affinity for the HLA supertypes of class I” value [2] of the same sequence?
Answer: Its value is “HLA-B*62”.

Question: How did the “Concatenation affinity for HLA allele of class I” value [1, 5] turn out when “ASFRSTEAI (Leishmania major) [SEQ ID NO: 75]” was run?
Answer: The value was “HLA-A*32:01,; also recorded: HLA-B*15:03,; also recorded: HLA-B*1517”.

Question: And the “Affinity for HLA supertypes of class I” value [2, 5]?
Answer: The value was “HLA-A*01,; also recorded: HLA-B*27,; also recorded: HLA-B*58”.

Question: “FTDVHYSEV (Leishmania major) [SEQ ID NO: 121]” was tested. Which “Affinity for HLA alleles of class I” value ([1]; LmlRAB-IIB core, Table 2) did it give?
Answer: The value was “HLA-A*02:01,; also recorded: HLA-A*02:03,; also recorded: HLA-A*02:06,; also recorded: HLA-A*35:01,; also recorded: HLA-A*68:02”.

Question: And the “Concatenation affinity for HLA alleles of class II” value ([3]; LmlRAB-IIB core, Table 2)?
Answer: Its value is “HLA-DRB1*07:01,; also recorded: HLA-DRB1*09:01,; also recorded: HLA-DRPA*01:03/; also recorded: DPB1*04:01,; also recorded: HLA-DPA1*01:03/; also recorded: DPB1*02:01”.

Question: With “HSMIRDLDF (listed as Leishmania infantum) [SEQ ID NO: 173]” as the sequence, how does the “Affinity for HLA alleles of class I” value ([1]; PSA KC-2.7 core, Table 3) read?
Answer: Its value is “HLA-B*35:01,; also recorded: HLA-B*58:01”.

Question: And the “Concatenation affinity for HLA alleles of class II” value ([3]; PSA KC-2.7 core, Table 3)?
Answer: Its value is “HLA-DRB4*01:01”.

Question: What does the source list for “IKAINAQMSM (Leishmania major) [SEQ ID NO: 2]”?
Answer: Affinity for the HLA alleles of class I [1]: HLA-B*57:01; also recorded: HLA-B*15:01,; Affinity for the HLA supertypes of class I [2]: HLA-B*62; also recorded: HLA-B*58,

Question: What does the source list for “IVADHMPHL (Leishmania major) [SEQ ID NO: 89]”?
Answer: Affinity for HLA alleles of class I ([1]; LmLRAB-IIA core, Table 2): HLA-A*02:01,; also recorded: HLA-A*02:03,; also recorded: HLA-A*02:06; Concatenation affinity for HLA alleles of class II ([3]; LmLRAB-IIA core, Table 2): HLA-DRB1*03:01,; also recorded: HLA-DRB1*13:02,; also recorded: HLA-DRB3*01:01

Question: How did the “IFN-γ ELISPOT response of specific line to individual peptide” value (shortened to “IFN-γ ELISPOT response of specific line”) ([4]; MPL10-3 line, peptide-NH2) turn out when “KAARSARSGEGYFLTDEKTSLVYGDGG (listed as Leishmania infantum) [SEQ ID NO: 157]” was run?
Answer: The value was “responds”.

Question: And the “IFN-γ ELISPOT response of specific line” value ([4]; MPL10-4 line, peptide-NH2)?
Answer: The value was “responds”.

Question: And the “IFN-γ ELISPOT response of specific line” value ([4]; MPL10-7 line, peptide-NH2)?
Answer: The value was “responds”.

Question: What about the “IFN-γ ELISPOT response of specific line” value ([4]; MPL10-8 line, peptide-NH2) of the same sequence?
Answer: The value was “responds”.

Question: What about the “IFN-γ ELISPOT response of specific line” value ([4]; MPL10-10 line, peptide-NH2) of the same sequence?
Answer: The value was “responds”.

Question: What about the “IFN-γ ELISPOT response of specific line” value ([4]; MPL10-12 line, peptide-NH2) of the same sequence?
Answer: Its value is “responds”.

Question: And the “IFN-γ ELISPOT response of specific line” value ([4]; MPL10-PAL-2 line, PAL-peptide-NH2)?
Answer: Its value is “responds”.

Question: And the “IFN-γ ELISPOT response of specific line” value [4, 6]?
Answer: The value was “responds”.

Question: Which “Affinity for the HLA alleles of class I” value [1] does the source give for “KAINAQMSM (Leishmania major) [SEQ ID NO: 3]” here?
Answer: The value was “HLA-B*58:01,; also recorded: HLA-B*57:01,; also recorded: HLA-B*15:01,; also recorded: HLA-A*30:01”.

Question: And the “Affinity for the HLA alleles of class II” value ([3]; H2B-1 epitopes, Table 1)?
Answer: The value was “DRB4*01:01”.

Question: With “KAINAQMSMM (Leishmania major) [SEQ ID NO: 4]” as the sequence, how does the “Affinity for the HLA alleles of class I” value [1] read?
Answer: The value was “HLA-B*58:01,; also recorded: HLA-B*57:01,; also recorded: HLA-B*15:01”.

Question: What about the “Affinity for the HLA supertypes of class I” value [2] of the same sequence?
Answer: Its value is “HLA-B*58,; also recorded: HLA-B*62”.

Question: How did the “IFN-γ ELISPOT response of specific line” value ([4]; MPL10-4 line, peptide-NH2) turn out when “KARYMPHVDQSSIARYASFRSTEAIRYSSIMVVANK (Leishmania major) [SEQ ID NO: 77]” was run?
Answer: The value was “responds”.

Question: And the “IFN-γ ELISPOT response of specific line” value ([4]; MPL10-7 line, peptide-NH2)?
Answer: The value was “responds”.

Question: And the “IFN-γ ELISPOT response of specific line” value ([4]; MPL10-10 line, peptide-NH2)?
Answer: The value was “responds”.

Question: What about the “IFN-γ ELISPOT response of specific line” value [4, 6] of the same sequence?
Answer: The value was “responds”.
